The text below walks through data of patent US20080221218A1, “Receptor” (The University of York, priority 2005, published 2008).

The nature of one series: Potentiometric titrations: binding of inorganic phosphate (equimolar KH2PO4 and receptor). The settings on record: A = phosphate; potentiometry, 0.1 M KCl, 25° C. The protocol: (§1) Potentiometric measurements were conducted using a Metrohm 792SM Titrino automated burette fitted with a combined glass electrode and an in-house designed jacketed glass cell thermostated at 25° C. suitable for small sample volumes (5 mL). The cell was sealed under an inert atmosphere. All solutions were made up using ultrapure CO2-free water from a Millipore Simplicity 185 system. The sample solutions contained 0.1 M KCl as a background electrolyte. The titrant base was made up from commercial (Riedel-de Haën) CO2-free concentrates of KOH, diluted to the required concentration (0.020 M) with a 0.080 M KCl solution to avoid problems of different ionic strengths. The glass electrode was calibrated by titrating well-known amounts of HCl (made up from Riedel-de Haën concentrates) with the base and determining the equivalence point using Gran's method (G. Gran, Analyst, 1952, 77, 661-671) yielding the ionic product of water (pKw=13.78), which was used as a constant in the subsequent analyses.
(§2) Sample concentrations were typically 1.0-5.0×10^−3 M. A known excess of HCl was added to ensure full protonation of the receptor. The degree of protonation of our receptors was calculated from the onset of titration curve. […] A minimum of 250 points in the pH-range of 2.5-11.0 was taken for every titration, with at least 30 seconds between each addition to ensure equilibration. The computer program […]^I was used to determine the protonation and stability constants. For each system a minimum of three titrations were first treated as individual sets and then merged and fitted simultaneously to give the final constants.
Turning to `CN(CCCN)CCCNC(=O)/C=C/C(=O)NCCCN(C)CCCN` [Compound 1], the “Binding constant (Log K) H3L3+ + HA2− ⇄ H4LA+” value stood at 2.90 and the “Binding constant (Log K) H4L4+ + HA2− ⇄ H5LA2+” value is listed as 3.39.
As to `CN(CCCN)CCCNC(=O)/C=C\C(=O)NCCCN(C)CCCN` [Compound 2], the “Binding constant (Log K) H3L3+ + HA2− ⇄ H4LA+” value turned out to be 5.27 and the “Binding constant (Log K) H4L4+ + HA2− ⇄ H5LA2+” value stood at 8.55.
Turning to `CN1CCCNCc2cccc(c2)CNCCCN(C)CCCNC(=O)/C=C\C(=O)NCCC1` [Compound 3], the “Binding constant (Log K) H3L3+ + HA2− ⇄ H4LA+” value was determined as 10.24.
On to `CN(CCCN)CCCNC(=O)[C@@H]1C2C=CC(C2)[C@H]1C(=O)NCCCN(C)CCCN` [Compound 14], for which the “Binding constant (Log K) H3L3+ + HA2− ⇄ H4LA+” value amounted to 5.52 and the “Binding constant (Log K) H4L4+ + HA2− ⇄ H5LA2+” value is given as 10.70.

Still in this series, the particulars now being: A = phosphate; potentiometry, 0.1 M KCl, 25° C.; dash = equilibrium does not occur significantly.
Regarding `CN(CCCN)CCCNC(=O)/C=C\C(=O)NCCCN(C)CCCN` [Compound 2], the “Binding constant (Log K) H2L2+ + HA2− ⇄ H3LA” value is on record as 4.40 and the “Binding constant (Log K) H4L4+ + H2A− ⇄ H6LA3+” value worked out at 7.67.
Take `CN1CCCNCc2cccc(c2)CNCCCN(C)CCCNC(=O)/C=C\C(=O)NCCC1` [Compound 3]: the “Binding constant (Log K) H2L2+ + HA2− ⇄ H3LA” value was determined as 7.53 and the “Binding constant (Log K) H4L4+ + H2A− ⇄ H6LA3+” value was 10.90.
Regarding `CN(CCCN)CCCNC(=O)[C@@H]1C2C=CC(C2)[C@H]1C(=O)NCCCN(C)CCCN` [Compound 14], the “Binding constant (Log K) H2L2+ + HA2− ⇄ H3LA” value turned out to be 4.37 and the “Binding constant (Log K) H4L4+ + H2A− ⇄ H6LA3+” value stood at 10.17.

The series is the same for the next values; noted with them: overall constant, A = phosphate; potentiometry, 0.1 M KCl, 25° C.
For `CN(CCCN)CCCNC(=O)/C=C/C(=O)NCCCN(C)CCCN` [Compound 1], the “Protonation and binding constant (Log K) 4H+ + L + A3− ⇄ H4LA+” value was determined as 42.87; the “Protonation and binding constant (Log K) 5H+ + L + A3− ⇄ H5LA2+” value came to 50.44.
As to `CN(CCCN)CCCNC(=O)/C=C\C(=O)NCCCN(C)CCCN` [Compound 2], the “Protonation and binding constant (Log K) 4H+ + L + A3− ⇄ H4LA+” value is 43.27 (7); the “Protonation and binding constant (Log K) 5H+ + L + A3− ⇄ H5LA2+” value is on record as 50.30 (7).
`CN1CCCNCc2cccc(c2)CNCCCN(C)CCCNC(=O)/C=C\C(=O)NCCC1` [Compound 3]: the “Protonation and binding constant (Log K) 4H+ + L + A3− ⇄ H4LA+” value is reported as 46.85 (4); the “Protonation and binding constant (Log K) 5H+ + L + A3− ⇄ H5LA2+” value is 53.76 (5).
For `CN(CCCN)CCCNC(=O)[C@@H]1C2C=CC(C2)[C@H]1C(=O)NCCCN(C)CCCN` [Compound 14], in that order: 42.67 (3) and 50.09 (3).

Staying with this series, now noted: overall constant, A = phosphate; potentiometry, 0.1 M KCl, 25° C.; dash = equilibrium does not occur significantly.
As for `CN(CCCN)CCCNC(=O)/C=C\C(=O)NCCCN(C)CCCN` [Compound 2], the “Protonation and binding constant (Log K) 3H+ + L + A3− ⇄ H3LA” value is given as 34.94 (4); the “Protonation and binding constant (Log K) 6H+ + L + A3− ⇄ H6LA3+” value is 56.33 (9).
For `CN1CCCNCc2cccc(c2)CNCCCN(C)CCCNC(=O)/C=C\C(=O)NCCC1` [Compound 3], in that order: 37.83 (4) and 57.40 (5).
As for `CN(CCCN)CCCNC(=O)[C@@H]1C2C=CC(C2)[C@H]1C(=O)NCCCN(C)CCCN` [Compound 14], the “Protonation and binding constant (Log K) 3H+ + L + A3− ⇄ H3LA” value is given as 34.34 (3); the “Protonation and binding constant (Log K) 6H+ + L + A3− ⇄ H6LA3+” value is given as 56.47 (3).

Still in this series, the particulars now being: pH 7.0; from speciation diagrams of potentiometric data (FIG. 4).
For the molecule `CN(CCCN)CCCNC(=O)/C=C/C(=O)NCCCN(C)CCCN` [Compound 1], the “phosphate in solution bound by receptor” value was found to be 31%.
Turning to `CN(CCCN)CCCNC(=O)/C=C\C(=O)NCCCN(C)CCCN` [Compound 2], the “phosphate in solution bound by receptor” value worked out at 95%.
Consider `CN(CCCN)CCCNC(=O)[C@@H]1C2C=CC(C2)[C@H]1C(=O)NCCCN(C)CCCN` [Compound 14], for which the “phosphate in solution bound by receptor” value is on record as 95%.

The series is the same for the next values; noted with them: potentiometry, summary of Table 2.
Consider `CN(CCCN)CCCNC(=O)/C=C/C(=O)NCCCN(C)CCCN` [Compound 1], for which the “affinity towards inorganic phosphate (log K), range over protonation states” value is 2.9-3.4.
The same measure, in the same setting: the same measure for `CN(CCCN)CCCNC(=O)/C=C\C(=O)NCCCN(C)CCCN` [Compound 2]: 4.4-8.6.

Assay in the next series: not given
As to conditions: literature (Bertsch et al.); cited from earlier work.
As to `NCCCN` [1,3-diaminopropane], the “first protonation pKa” value was 10.6 and the “second protonation pKa” value is on record as 8.6.
For the molecule `NCCCCN` [1,4-diaminobutane], the “second protonation pKa” value is given as 9.4.
As to `NCCN` [1,2-diaminoethane], the “first protonation pKa” value is on record as 10.1 and the “second protonation pKa” value is listed as 7.0.

A short description of another series: Fluorimetric titrations: quenching of fluorescent phosphate derivative 13. As to conditions: 1:1 binding model; 0.1 M TRIS buffer pH 7.0; 13 at 5.0×10^−6 M. The protocol:
Titrations were performed on a Spex Fluoromax-II instrument at 25° C. in a 0.1 M TRIS buffer of pH 7.0, using an excitation wavelength of 324 nm.
Upon titration of our receptors to a solution of this probe in buffered water (0.1 M Tris, pH 7.0) the emission of compound 13 was quenched indicating binding (FIG. 3).
This is related to the trans configuration of the oligoamines around the conformationally restricted scaffold in compound 1 preventing the oligoamines from cooperating.
Regarding `CN(CCCN)CCCNC(=O)/C=C/C(=O)NCCCN(C)CCCN` [Compound 1], the “binding constant (log K) for fluorescent phosphate derivative 13” value was “no significant binding occurs”.
`CN(CCCN)CCCNC(=O)/C=C\C(=O)NCCCN(C)CCCN` [Compound 2]: the “binding constant (log K) for fluorescent phosphate derivative 13” value is 5.15.
In the case of `CN1CCCNCc2cccc(c2)CNCCCN(C)CCCNC(=O)/C=C\C(=O)NCCC1` [Compound 3], the “binding constant (log K) for fluorescent phosphate derivative 13” value amounted to 5.30.

The next series in a line: Potentiometric titrations: protonation constants. The format is physicochemical. The settings on record: cumulative; potentiometry, 0.1 M KCl, 25° C. The protocol: as §1, §2
To study the binding in more detail we used potentiometry. To enable this, we first investigated the protonation constants of the receptors and the data is collected in Table 1. We calibrated our system with spermine (compound 4) and the data for this compound are also included in this table and were in accordance with literature values (Bazzicalupi et al, J. Am. Chem. Soc. 121: 6807-6815 (1999); De Stefano et al., J. Chem. Soc. Faraday Trans, 94:1091-1095 (1998); Bergeron et al., J. Med. Chem. 38:2278-2285 (1995)).
As for `NCCCNCCCCNCCCN` [Compound 4, spermine, reference compound], the “Protonation constant (log K) 2H+ + L ⇄ H2L2+” value is reported as 20.63, the “Protonation constant (log K) 3H+ + L ⇄ H3L3+” value was found to be 29.50 and the “Protonation constant (log K) 4H+ + L ⇄ H4L4+” value is 37.58.
On to `CN(CCCN)CCCNC(=O)/C=C/C(=O)NCCCN(C)CCCN` [Compound 1], for which the “Protonation constant (log K) 2H+ + L ⇄ H2L2+” value turned out to be 20.05, the “Protonation constant (log K) 3H+ + L ⇄ H3L3+” value is reported as 28.42 and the “Protonation constant (log K) 4H+ + L ⇄ H4L4+” value is recorded as 35.50.
For the molecule `CN(CCCN)CCCNC(=O)/C=C\C(=O)NCCCN(C)CCCN` [Compound 2], the “Protonation constant (log K) 2H+ + L ⇄ H2L2+” value was found to be 19.06, the “Protonation constant (log K) 3H+ + L ⇄ H3L3+” value is 26.52 and the “Protonation constant (log K) 4H+ + L ⇄ H4L4+” value is listed as 30.27.
Turning to `CN1CCCNCc2cccc(c2)CNCCCN(C)CCCNC(=O)/C=C\C(=O)NCCC1` [Compound 3], the “Protonation constant (log K) 2H+ + L ⇄ H2L2+” value is recorded as 18.82, the “Protonation constant (log K) 3H+ + L ⇄ H3L3+” value came out at 25.14 and the “Protonation constant (log K) 4H+ + L ⇄ H4L4+” value came to 28.11.
For `CN(CCCN)CCCNC(=O)[C@@H]1C2C=CC(C2)[C@H]1C(=O)NCCCN(C)CCCN` [Compound 14], the “Protonation constant (log K) 2H+ + L ⇄ H2L2+” value was 18.49, the “Protonation constant (log K) 3H+ + L ⇄ H3L3+” value was 25.67 and the “Protonation constant (log K) 4H+ + L ⇄ H4L4+” value is given as 27.91.

The series is the same for the next values; noted with them: potentiometry, 0.1 M KCl, 25° C.
For the molecule `NCCCNCCCCNCCCN` [Compound 4, spermine, reference compound], the “Protonation constant (log K) H+ + L ⇄ HL+” value was determined as 10.64.
For `CN(CCCN)CCCNC(=O)/C=C/C(=O)NCCCN(C)CCCN` [Compound 1], the “Protonation constant (log K) H+ + L ⇄ HL+” value is reported as 10.45.
The same measure, in the same setting: the figure for `CN(CCCN)CCCNC(=O)/C=C\C(=O)NCCCN(C)CCCN` [Compound 2] is 10.04.
`CN1CCCNCc2cccc(c2)CNCCCN(C)CCCNC(=O)/C=C\C(=O)NCCC1` [Compound 3]: the “Protonation constant (log K) H+ + L ⇄ HL+” value was 10.32.
Same read-out and setting: the figure for `CN(CCCN)CCCNC(=O)[C@@H]1C2C=CC(C2)[C@H]1C(=O)NCCCN(C)CCCN` [Compound 14] is 9.76.

Still in this series, the particulars now being: stepwise; potentiometry, 0.1 M KCl, 25° C.
With `NCCCNCCCCNCCCN` [Compound 4, spermine, reference compound], the “Protonation constant (log K) H+ + H2L2+ ⇄ H3L3+” value is listed as 8.87, the “Protonation constant (log K) H+ + H3L3+ ⇄ H4L4+” value is recorded as 8.08 and the “Protonation constant (log K) H+ + HL+ ⇄ H2L2+” value is reported as 9.99.
Take `CN(CCCN)CCCNC(=O)/C=C/C(=O)NCCCN(C)CCCN` [Compound 1]: the “Protonation constant (log K) H+ + H2L2+ ⇄ H3L3+” value amounted to 8.37, the “Protonation constant (log K) H+ + H3L3+ ⇄ H4L4+” value is 7.08 and the “Protonation constant (log K) H+ + HL+ ⇄ H2L2+” value is 9.60.
Take `CN(CCCN)CCCNC(=O)/C=C\C(=O)NCCCN(C)CCCN` [Compound 2]: the “Protonation constant (log K) H+ + H2L2+ ⇄ H3L3+” value is 7.46, the “Protonation constant (log K) H+ + H3L3+ ⇄ H4L4+” value was found to be 3.75 and the “Protonation constant (log K) H+ + HL+ ⇄ H2L2+” value turned out to be 9.02.
Regarding `CN1CCCNCc2cccc(c2)CNCCCN(C)CCCNC(=O)/C=C\C(=O)NCCC1` [Compound 3], the “Protonation constant (log K) H+ + H2L2+ ⇄ H3L3+” value amounted to 6.32, the “Protonation constant (log K) H+ + H3L3+ ⇄ H4L4+” value came to 2.97 and the “Protonation constant (log K) H+ + HL+ ⇄ H2L2+” value is on record as 8.50.
As for `CN(CCCN)CCCNC(=O)[C@@H]1C2C=CC(C2)[C@H]1C(=O)NCCCN(C)CCCN` [Compound 14], the “Protonation constant (log K) H+ + H2L2+ ⇄ H3L3+” value turned out to be 7.18, the “Protonation constant (log K) H+ + H3L3+ ⇄ H4L4+” value is given as 2.24 and the “Protonation constant (log K) H+ + HL+ ⇄ H2L2+” value is reported as 8.73.
